Patent US20260085081A1, “PHOSPHATIDYLAMINE COMPOUNDS INCLUDING A PLURALITY OF TERTIARY AMINO GROUP STRUCTURES AND COMPOSITIONS THEREOF” (PEKING UNIVERSITY, priority 2022, published 2026)

Assays:
[1] = system: Fluc-mRNA (luciferase expression); assay: In vivo transfection efficiency of Fluc-mRNA lipid nanoparticles after intramuscular injection; set-up: species or system mice; conditions: for in vivo transfection (expression, FIG. 5): weight ratio lipid nanoparticle/RNA 10:1, DOPE or DSPC group; for in vivo transfection (expression, FIG. 5) / expression in vivo compared with control MC3: 3 μg Fluc-mRNA/mouse; for Intramuscular injection (PL/MC3) expression strength level: ratio of expression PL/MC3
Procedure: 6 h after intramuscular injection of mRNA LNPs, mice were injected intraperitoneally with 0.2 mL […] (20 mg/mL PBS solution). After 10 min, mice were anesthetized with isoflurane in oxygen in a ventilated anesthesia room and imaged with an imaging system (IVIS, PerkinElmer), and luminescence was quantified using Living Image software (PerkinElmer).

[2] = system: NIH-3T3 cells; assay: Transfection efficiency of lipid nanoparticles in NIH-3T3 cells; format: cell-based, murine
Procedure: The prepared cationic compounds (PL1, PL4, PL8, PL10, PL11, PL12, PL13, PL14, PL17, PL18, PL23, PL24, PL26, PL27, PL28, PL29, PL30, PL31, PL32, PL33, PL36, PL38, PL41, PL44, PL45, PL53, PL54, PL55, PL56, PL57, PL58, PL59, PL60, PL61, PL78, PL79, PL93, PL94, PL95, PL96, PL97, PL103), DOPE/DSPC, cholesterol, and DMG-PEG2000 are prepared with ethanol in a molar ratio of 35:16:46.5:2.5 to form the ethanol phase, and RNA is formulated into the aqueous phase with 50 mM citrate buffer solution at pH=4. Lipid nanoparticles are obtained by microfluidic mixing at aqueous phase:ethanol phase=3:1 (v/v), followed by dialysis purification in PBS at pH 7.4 overnight to remove ethanol.
(§1) Determination process included: preparing a 96-well plate, inoculating cells (4000 cells/well), adding 100 μL of medium, incubating at 37° C. overnight; after 24 h, adding lipid nanoparticles diluted with medium (achieving the final concentration of RNA of 10 µg/mL), incubating at 37° C. for 24 h, and then adding 50 μL of specialized luciferase substrate to each well, followed by detection using by a microplate reader (chemiluminescence).
FIG. 1A and FIG. 1B illustrate transfection of lipid nanoparticles of a DOPE group and a DSPC group in NIH3T3 cells according to some embodiments of the present disclosure. Specifically, for compounds PL1, PL4, PL6, PL8, PL10, PL11, PL12, lipid nanoparticles are prepared by DOPE and DSPC, respectively, according to an […] (Example 44). The transfection efficiency of these two groups of lipid nanoparticles in cells is first evaluated, and murine fibroblasts NIH-3T3 are selected for incubation (Example 47), and the results are shown in FIG. 1A and FIG. 1B. […] PL10, PL11, and PL12 all include two tertiary amino groups.

[3] = system: human hepatocellular carcinoma HepG2 cells; assay: Transfection efficiency of lipid nanoparticles in HepG2 cells; format: cell-based
Procedure: as §1
FIG. 2A and FIG. 2B illustrate encapsulation efficiency of lipid nanoparticles and cell transfection efficiency according to some embodiments of the present disclosure. FIG. 2A is the encapsulation efficiency of lipid nanoparticles in the DOPE/DSPC groups, and FIG. 2B is the transfection efficiency in HepG2 cells. PL1, PL10, and PL12 from the DOPE group, and PL11 and PL12 from the DSPC group are selected to further explore the transfection efficiency in human hepatocellular carcinoma HepG2 cells. LNP is first prepared using microfluidic approach (Example 44) and the encapsulation efficiency of LNP is measured (Example 46), and the results are shown in FIG. 2A. […] PL10 has the best effect, which is 400-fold of that of LNPs in the control group MC3. The experiment also further illustrates that PL lipids have excellent cell transfection efficiency and stable effect in different cell lines.

[4] = Encapsulation efficiency of lipid nanoparticles (RiboGreen assay); format: physicochemical
Procedure: The total RNA concentration and the encapsulation efficiency were determined using a RiboGreen assay. Determination process included: taking a black 96-well plate, adding 50 μL TE buffer/Triton X to A1-A8/B1-B8, respectively (A1-A6/B1-B6 for the standard curve, A7-8/B7-8 for samples), then adding the RNA TE (Tris-EDTA) dilution solutions (2 ng/μL, 1 ng/μL, 0.5 ng/μL, 0.25 ng/μL, 0.125 ng/μL, 0 ng/μL) to the above wells A1-A6/B1-B6 as the standard curve, adding 50 μL nanoparticle dilution solution to A7-A8/B7-B8, and shaking at 37° C. for 15 min, subsequently, adding 100 μL of RiboGreen solution (diluted 400-fold with TE buffer) to each well, and shaking for 3-5 min, and detecting the fluorescence intensity of each well by a microplate reader at an excitation wavelength of 485 nm and an emission wavelength of 515 nm.

[5] = system: white adipocyte; assay: White adipocyte administration, expression relative to SM102; format: cell-based; conditions: ratio of expression PL/SM102
Source text: (§2) Finally, the expression levels of lipid nanoparticles with a plurality of tertiary amine groups from the embodiments of the present disclosure after intramuscular injection, white adipocyte administration, and intraperitoneal injection are summarized, and compared with lipid nanoparticles prepared from commercially available cationic lipids MC3 and SM102. […] However, the expression rates of the phosphatidylamine lipids with a plurality of tertiary amine groups from embodiments of the present disclosure are higher than that of SM102.

[6] = system: adipose tissue; assay: Intraperitoneal injection of Fluc-mRNA LNPs, expression and distribution; format: in vivo, mice; conditions: ratio of expression PL/SM102
Procedure: FIG. 10 illustrates the effect of Fluc-mRNA LNPs composed of different structural cationic lipids on the mRNA delivery efficiency after intraperitoneal administration according to some embodiments of the present disclosure. Targeting and expression of PL lipids on adipose tissue after intraperitoneal administration is also evaluated. […] That is to say, the PL lipid structure with the plurality of tertiary amino group structures may enhance the selective targeting of visceral adipocytes. […]
as §2

[7] = Summary of the strongest expressions over the administration routes; conditions: strongest level of the three administrations
Source text: as §2

[8] = Particle size of lipid nanoparticles (dynamic light scattering); format: physicochemical
Procedure: The particle size of the lipid nanoparticles and the distribution (size, PDI) were determined by Malvern Zetasizer Nano ZS laser particle sizer according to dynamic light scattering (DLS). The samples were diluted 100-fold with PBS before measurement, and 1 mL was taken for measurement. The measurement was repeated three times in parallel for each sample.

[9] = system: joint cavity; assay: Intra-articular injection of Fluc-mRNA LNPs, luciferase expression in the joint cavity (IVIS); format: in vivo, ICR mice
Procedure: Images of luciferase expression in the joint cavity are detected with an IVIS imaging system at 6 h, 12 h, 24 h, 48 h, 72 h, and 96 h after intra-articular injection of 2 μg of Fluc-mRNA LNPs (PL10, PL14, and PL17, n=3).

[10] = system: most cells and tissues; conditions: reported; cited from earlier work

| SMILES | in vivo transfection (expression, FIG. 5) [1] | transfection efficiency relative to MC3 LNP ([2]; DOPE group LNP) | White adipocyte administration (PL/SM102) expression strength level [5] | expression in vivo compared with control MC3 ([1]; DOPE group, weight ratio 10:1) | Intramuscular injection (PL/MC3) expression strength level [1] | Summary of the strongest expressions [7] | transfection efficiency relative to MC3 LNP ([2]; DSPC group LNP) | further results |
| --- | --- | --- | --- | --- | --- | --- | --- | --- |
| CCCCC/C=C\C/C=C\CCCCCCCCOP(=O)(NCCCN(C)C)OCCCCCCCC/C=C\C/C=C\CCCCC [PL1] | expressed | 16 fold |  |  |  |  |  |  |
| CCCCC/C=C\C/C=C\CCCCCCCCOP(=O)(NCCN(CCCCCCCCCCCC)CCCN(C)C)OCCCCCCCC/C=C\C/C=C\CCCCC [PL10] | expressed | 22 fold | C (C: ≥0.1 and <1) | better than that of control MC3 | A (A: ≥2) | A (A: ≥2) |  | transfection efficiency relative to LNPs of control group MC3 [3]: 400 fold; encapsulation efficiency ([4]; DOPE LNP, microfluidic preparation): around 50%; encapsulation efficiency ([4]; weight ratio cationic PL lipid/RNA 5:1 (lowest lipid)): more than 30%; encapsulation efficiency ([4]; weight ratio cationic PL lipid/RNA 15:1 (most lipid)): about 70%; in vivo fluorescence signal ([1]; weight ratio cationic lipid/RNA 15:1, 3 μg Fluc-mRNA): no fluorescence signal; in vivo expression relative to MC3 LNP ([1]; weight ratio lipid nanoparticles/RNA 5:1, 3 μg Fluc-mRNA): 3 fold; in vivo expression relative to MC3 LNP ([1]; weight ratio lipid nanoparticles/RNA 10:1, 3 μg Fluc-mRNA): 10 fold; Intraperitoneal injection (PL/SM102) expression strength level [6]: D (D: <0.1); particle size ([8]; weight ratio lipid nanoparticle/RNA 5:1): 200 nm; particle size ([8]; weight ratio lipid nanoparticle/RNA 15:1): 150 nm |
| CCCCC/C=C\C/C=C\CCCCCCCCOP(=O)(NCCN(CCCCCCCCCCCC)CCCN(C)C)OCCCC(=O)OCCCCCCCCCCC (stereo not shown) [PL11] | expressed |  | C (C: ≥0.1 and <1) | close to that of MC3 | C (C: ≥0.1 and <1) | C (C: ≥0.1 and <1) | 3 fold |  |
| CCCCC/C=C\C/C=C\CCCCCCCCOP(=O)(NCCN(CCCCCCCCCC(=O)OC(CC)CCCCC)CCCN(C)C)OCCCC(=O)OCCCCCCCCCCC (stereo not shown) [PL12] | expressed | 7 fold | D (D: <0.1) |  | A (A: ≥2) | A (A: ≥2) | 1.5 fold |  |
| CCCCC/C=C\C/C=C\CCCCCCCCOP(=O)(NCCCN1CCN(CCCN(CCCCCCCCCCCC)CCCCCCCCCCCC)CC1)OCCCCCCCC/C=C\C/C=C\CCCCC [PL14] | expressed |  | C (C: ≥0.1 and <1) | better than that of control MC3 | A (A: ≥2) | A (A: ≥2) |  | enhancement of in vivo expression with respect to control MC3 ([1]; DOPE group, weight ratio 10:1, 3 g Fluc-mRNA/mouse): an order of magnitude enhancement; nanoparticle particle size ([8]; optimized formulation: decreased proportion of PEG, increased volume of aqueous phase): around 200 nm; expression efficiency after intra-articular injection ([9]; 2 μg Fluc-mRNA LNPs, 6 h to 96 h): higher and more long-lasting expression efficiencies compared to both PL10 and PL17 LNPs; distribution and expression outside the joint after intra-articular injection ([9]; liver): distributed and expressed non-specifically in the liver |
| CCCCCCCCCCCOC(=O)CCCCCN(CCO)CCCCCCCC(=O)OC(CCCCCCCC)CCCCCCCC [SM102] |  |  |  |  |  |  |  | expression compared with MC3 [10]: at least ten-fold higher than that of MC3 |
